In PubChem BioAssay (NCI):
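Where inhibition never reached the appropriate level, the endpoint shown equals the highest concentration tested. Otherwise, values were interpolated linearly from a five-concentration, 48-hour dose response in 96-well plates. TGI: concentration producing complete growth inhibition.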

Assays:
Assay in all cases: NCI-60 cell line screen, 48 h
A498 renal = test system: A498 renal
CCRF-CEM leukemia = test system: CCRF-CEM leukemia
DU-145 prostate = test system: DU-145 prostate
HCT-116 colon = test system: HCT-116 colon
HL-60(TB) leukemia = test system: HL-60(TB) leukemia
LOX IMVI melanoma = test system: LOX IMVI melanoma
MDA-MB-231 breast = test system: MDA-MB-231 breast
MDA-N = test system: MDA-N
NCI/ADR-RES ovarian = test system: NCI/ADR-RES ovarian
OVCAR-3 ovarian = test system: OVCAR-3 ovarian
OVCAR-4 ovarian = test system: OVCAR-4 ovarian
PC-3 prostate = test system: PC-3 prostate
RXF 393 renal = test system: RXF 393 renal
SF-295 CNS = test system: SF-295 CNS
SF-539 CNS = test system: SF-539 CNS
SK-MEL-2 melanoma = test system: SK-MEL-2 melanoma
SK-OV-3 ovarian = test system: SK-OV-3 ovarian
SW-620 colon = test system: SW-620 colon
TK-10 renal = test system: TK-10 renal
UACC-257 melanoma = test system: UACC-257 melanoma

Row | SMILES | TGI (A498 renal) [µM] | TGI (CCRF-CEM leukemia) [µM] | TGI (DU-145 prostate) [µM] | TGI (HCT-116 colon) [µM] | TGI (HL-60(TB) leukemia) [µM] | TGI (LOX IMVI melanoma) [µM] | TGI (MDA-MB-231 breast) [µM] | TGI (MDA-N) [µM] | TGI (NCI/ADR-RES ovarian) [µM] | TGI (OVCAR-3 ovarian) [µM] | TGI (OVCAR-4 ovarian) [µM] | TGI (PC-3 prostate) [µM] | TGI (RXF 393 renal) [µM] | TGI (SF-295 CNS) [µM] | TGI (SF-539 CNS) [µM] | TGI (SK-MEL-2 melanoma) [µM] | TGI (SK-OV-3 ovarian) [µM] | TGI (SW-620 colon) [µM] | TGI (TK-10 renal) [µM] | TGI (UACC-257 melanoma) [µM]
1 | C/C(=N/NC(=S)N1CCCCCC1)c1ccccc1O | > 74 | > 30.8 | > 69.4 | > 100 | 7.8 | > 78.7 | > 66.8 | > 100 | 8.35 | > 40.9 | > 33.9 | > 100 | > 93 | > 100 | 28.5 | > 100 | > 100 | > 100 | > 100 | 30.9
2 | CCOC(=O)c1c(N2CCOCC2)[nH]c(=O)c(C(c2c(O)c(C(=O)OCC)c(N3CCOCC3)[nH]c2=O)C(C)C)c1O | > 100 | > 100 | > 100 | > 100 | > 100 | > 100 | > 100 | > 100 | > 100 | > 100 | > 100 | > 100 | > 100 | > 100 | > 100 | > 100 | > 100 | > 100 | > 100 | > 100
3 | CCOP(=O)(OCC)/C(=C/c1ccccc1)CC(C)=O | > 100 | > 100 | > 100 | > 100 | 68.7 | > 100 | > 100 | > 100 | > 100 | > 100 | > 100 | > 100 | > 100 | > 100 | > 100 | > 100 | > 100 | > 100 | > 100 | > 100
4 | NNC(=O)CC(=O)Nc1ccc(C(=O)O)cc1 |  | > 100 | > 100 | > 100 | > 100 | > 100 | > 100 | > 100 | > 100 | > 100 | > 100 | > 100 | > 100 | > 100 | > 100 | > 100 | > 100 | > 100 | > 100 | > 100
5 | COc1ccc(Cc2cc(OC)c(OC)c(OC)c2)cc1O | 76.8 | > 100 | > 100 | 13.6 | > 26.6 | > 100 | > 100 | > 100 | > 100 | > 100 | > 100 | > 100 | > 100 | > 100 | 0.041 | > 100 | > 80.2 | > 100 | > 100 | > 100
6 | CC(=O)OCC1OC(O[C@@H]2C[C@H]3C(C)(C)[C@H](OC(C)=O)CC[C@]3(C)[C@H]3CC[C@@]45C[C@H](O)C[C@H](C)[C@@H]4CC=C5[C@@]32C)C(O)C(O)C1O (stereo not given in full) | 15.8 | 13.6 | 20.6 | 4.85 | 3.86 | 4.07 | 11.6 | 12.4 | 32.9 | 10.6 | 16.4 | 10.7 | 6.23 | 12.5 | 19.2 | 5.93 | 22 | 16.6 | 21.4 | 17.8
7 | O=[N+]([O-])c1nccn1CCCN=c1c2ccccc2n(O)c2ccccc12 | > 100 | > 100 | > 100 | > 100 | > 100 | > 100 | > 100 | > 100 | > 100 | > 100 | > 100 | > 100 | > 100 | > 100 | > 100 | > 100 | > 100 | > 100 | > 100 | > 100
8 | CCOC(=O)c1ccc(-c2cccs2)n1C | > 100 | > 100 | > 100 | > 100 | > 100 | > 100 | > 100 | > 100 | > 100 | > 100 | > 100 | > 100 | > 100 | > 100 | > 100 | > 100 | > 100 | > 100 | > 100 | > 100
9 | O=C1OC(C2Cc3cc4c(cc3C2=O)CCC4)c2ccccc21 (stereo not given) | 61.6 | > 100 | > 100 | > 100 | > 100 | > 100 | > 100 | > 100 | > 100 | > 100 | > 100 | > 100 |  | > 100 | 80.4 | > 100 | > 100 | > 100 | > 100 | > 100
10 | Cc1cc(C)nc(NC(=S)Nc2cccc(Cl)c2)c1 | > 100 | > 100 | > 100 | > 100 | > 100 | > 100 | > 100 | > 100 | > 100 | > 100 | > 100 | > 100 | > 100 | > 100 | > 100 | > 100 | > 100 | > 100 | > 100 | > 100
11 | COC(OC)C1(c2ccccc2)Oc2ccccc2C1=O (stereo not given) | > 100 | > 100 | > 100 | > 100 | > 100 | > 100 | > 100 | > 100 | > 100 | > 100 | > 100 | > 100 | > 100 | > 100 | > 100 | > 100 | > 100 | > 100 | > 100 | > 100
12 | Nc1ccc(S(=O)(=O)Nc2nc3ccccc3nc2Nc2ccc(S(N)(=O)=O)cc2)cc1 |  | > 100 | > 100 | > 100 | 63.2 | 38.3 | > 100 | > 100 | > 100 | > 100 | 49.7 | > 100 | 62 | 72.1 | > 100 | 45.6 | > 100 | > 100 | > 100 | > 100
13 | N#Cc1cc2c(n(C3OC(CO)C(O)C(O)C3O)c1=S)CCCCC2 (stereo not given) | > 100 | > 100 | > 100 | > 100 | > 100 | > 100 | > 100 | > 100 | > 100 | > 100 | > 100 | > 100 | > 100 | > 100 | > 100 | > 100 |  |  | > 100 | > 100
14 | CSc1c(C#N)c(O)n(-c2ccc(Cl)cc2)c(=O)c1C#N | > 100 |  | > 100 | > 100 | > 100 | > 100 | > 100 | > 100 | > 100 | > 100 | > 100 | > 100 | > 100 |  | > 100 | > 100 | > 100 | > 100 | > 100 | > 100
15 | CCOC(=O)CCC(NC(=O)N1CCN(c2c(C)nc(C)[nH]c2=O)CC1)C(=O)OCC (stereo not given) | > 100 | > 100 | > 100 | > 100 | > 100 | > 100 | > 100 | > 100 | > 100 | > 100 | > 100 | > 100 | > 100 | > 100 | > 100 |  | > 100 | > 100 | > 100 | > 100
16 | Cn1c(=O)c2[nH]c(/N=N\n3ccc4ccccc43)nc2n(C)c1=O | > 100 | > 100 | > 100 | > 100 | > 100 | > 100 | > 100 | > 100 | > 100 | > 100 | > 100 | > 100 | > 100 | > 100 | > 100 |  | > 100 | > 100 | > 100 | > 100
17 | C/C(=C/CNc1ncnc2c1ncn2CCC(=O)O)CO | > 100 | > 100 | > 100 | > 100 | > 100 | > 100 | > 100 | > 100 | > 100 | > 100 | > 100 | > 100 | > 100 | > 100 | > 100 |  | > 100 | > 100 | > 100 | > 100
18 | Brc1ccc(-c2ccc(-c3ccc(-c4ccc(Br)s4)s3)s2)s1 | > 100 | > 100 | > 100 | > 100 | > 100 | > 100 | > 100 | > 100 | > 100 | > 100 | > 100 | > 100 | > 100 | > 100 | > 100 |  | > 100 | > 100 | > 100 | > 100
19 | C=CC1(c2ccc(Cl)c(Cl)c2)OCCO1 |  | > 100 | > 100 | > 100 | 67.5 | > 100 | 3.48 | > 100 | > 100 | > 100 | > 100 | > 100 | > 100 | > 100 |  | > 100 | > 100 | > 100 | > 100 | > 100
20 | CN(C)C(=O)c1nnsc1NN=O |  | > 100 | > 100 | > 100 | > 100 | > 100 | > 100 | > 100 | > 100 | > 100 | > 100 | > 100 | > 100 | > 100 |  | > 100 | > 100 | > 100 |  | > 100
21 | CC(=O)O[C@@]12[C@@H]3O[C@@]4(O)C[C@]5(C)[C@H]6C[C@@](C(C)C)(O[C@H]5c5ccoc5)O[C@H]1[C@]6(C4)O[C@]2(O)C(C)=CC3(C)C |  | > 100 | > 100 | > 100 | > 100 | > 100 | > 100 | > 100 | > 100 | > 100 | > 100 | > 100 | > 100 | > 100 | > 100 | > 100 | > 100 | > 100 | > 100 | > 100
22 | CCC(C)[C@H]1C(=O)N=C(N)N1C(=O)OCc1ccccc1 (stereo not given in full) | > 100 |  | > 100 | > 100 | > 100 | > 100 | > 100 | > 100 | > 100 | > 100 | > 100 | > 100 | > 100 | > 100 |  | > 100 |  | > 100 | > 100 | > 100
23 | C/C(Sc1ccccc1)=C1/CCCN(Cc2ccccc2)C1 | > 100 | 46.4 | > 100 |  | 32.6 | 31.8 | 76.5 | > 100 | 74.1 | 38.8 | > 100 | 59.9 | 36.3 | 50.9 | > 100 | 34 | > 100 | > 100 | 60.4 | 44.6
24 | Nc1cc(OCc2ccccc2)c(OCc2ccccc2)cc1C=O | 44.2 | > 100 | > 100 | 96.8 | 40 | 77.2 | > 100 | > 100 | > 100 |  |  | > 100 |  | 70 | 31.7 | > 100 | > 100 | > 100 | 67.8 | > 100
25 | C[C@@]12C[C@@H](c3ccccc3O1)N1CCSC1=N2 | > 100 |  | > 100 | > 100 | > 100 | > 100 | > 100 | > 100 | > 100 | > 100 | > 100 | > 100 | > 100 | > 100 | > 100 | > 100 | > 100 | > 100 | > 100 | > 100
